Experiments:
[1] = system: cellular prion protein; conditions: from individual with no prion disease
[2] = system: PrP^Sc; conditions: brain homogenate of prion disease infected animal and human; biotinylated peptide on streptavidin magnetic beads

Row | Sequence | capture of cellular prion protein [1] | ability to capture PrP^Sc from brain homogenate [2]
1 | NYKKPKLG [peptide-3] | do not capture cellular prion protein | capture PrP^Sc
2 | NWCKRGRKNCKTH [peptide-2] | do not capture cellular prion protein | capture PrP^Sc
3 | YRGYRGYRGYRG [peptide-5] | do not capture cellular prion protein | capture PrP^Sc
4 | AQKKDGKKRKRSRKESYSIYV [peptide-7] | do not capture cellular prion protein | capture PrP^Sc
5 | YRGRYGYKGKYGYRG [peptide-6] | do not capture cellular prion protein | capture PrP^Sc
6 | WQPPRARI [peptide-1] | do not capture cellular prion protein | capture PrP^Sc
